{
  "source": "patent US8178148B2",
  "about": "“Coffee drink composition” (Kao Corporation, priority 2004, dated 2012)",
  "tested_on": "spontaneously hypertensive rats (SHR)",
  "assay": "Evaluation of hypotensive effect of FH1041 with added hydroxyhydroquinone (Example 3)",
  "type": "in vivo, rat",
  "settings": "oral, HHQ added to FH1041 (300 mg/kg as total chlorogenic acids)",
  "description": "(a) As in Example 2, 12-week-old male spontaneously hypertensive rats (SHR) was bred preliminarily.\n(B) Administration Method and Amount: • Physiological saline was orally administered to a control group. An extract from raw coffee beans (“Flavor Holder FH1041”, product of T. Hasegawa Co., Ltd.) having chlorogenic acids as a main component was administered to a comparison group. The extract was prepared so that its administration amount would be 300 mg/kg in terms of the total chlorogenic acid amount. In test group 1, an administration material was prepared to permit the administration of FH1041 in an amount of 300 mg/kg in terms of a total chlorogenic acid amount and the administration of hydroxyhydroquinone in an amount of 0.03 mg/kg (0.01% relative to the total chlorogenic acid amount). In test group 2, an administration material was prepared to permit the administration of FH1041 in an amount of 300 mg/kg in terms of a total chlorogenic acid amount and the administration of hydroxyhydroquinone in an amount of 0.3 mg/kg (0.1% relative to the total chlorogenic acid amount). […]\nTest method: One group consisted of three SHR. Systolic blood pressures of the caudal artery were measured prior to oral administration and 12 hours after administration and based on them, a percent change in blood pressure was calculated. […]",
  "data": [
    {"smiles": "Oc1ccc(O)c(O)c1", "note": "[hydroxyhydroquinone]", "values": [
      {"measurement": "Influence on the hypotensive effect of chlorogenic acids", "value": "disturbed"}
    ]}
  ]
}
